This is an account of results in PMC5567048, “A novel c-di-GMP binding domain in glycosyltransferase BgsA is responsible for the synthesis of a mixed-linkage β-glucan” (Scientific Reports, 2017).

Assay [1] deals with T1, C-BgsA (Sinorhizobium meliloti, UniProt Q92WG2, R599A).
T1 construct: gene SM_b20391
Kind of assay: SPR solution competition against immobilised […]′-AHC-c-di-GMP chip. Type of assay: binding.

Assay [2] has as its target T2, C-BgsA (Sinorhizobium meliloti, UniProt Q92WG2, R605A).
T2 construct: gene SM_b20391
The assay is described as above. In kind it is binding.

Assay [3] has as its target T3, C-BgsA (Sinorhizobium meliloti, UniProt Q92WG2, R656A).
T3 construct: gene SM_b20391
Described as above. Type of assay: binding.

Assay [4] concerns the target T4, C-BgsA (Sinorhizobium meliloti, UniProt Q92WG2).
T4 construct: gene SM_b20391
T4 sequence (Q92WG2 526-664): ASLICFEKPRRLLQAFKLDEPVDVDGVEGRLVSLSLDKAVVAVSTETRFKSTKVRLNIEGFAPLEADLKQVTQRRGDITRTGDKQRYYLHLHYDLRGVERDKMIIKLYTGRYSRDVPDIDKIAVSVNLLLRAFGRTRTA
The assay is described as above. Type of assay: binding.

Assay [5] addresses T5, C-BgsA (Sinorhizobium meliloti, UniProt Q92WG2, D608A).
T5 construct: gene SM_b20391
Described as above. Type of assay: binding.

For assay [6], the target named is T6, C-BgsA (Sinorhizobium meliloti, UniProt Q92WG2, H615A).
T6 construct: gene SM_b20391
The assay is described as above. In kind it is binding.

Assay [7] has as its target T7, C-BgsA (Sinorhizobium meliloti, UniProt Q92WG2, Y633A).
T7 construct: gene SM_b20391
The description is as above. Type of assay: binding.

The target in assay [8] is T4, C-BgsA. Described as above. Type of assay: binding. To be noted: weak competitor; c-di-GMP at the same concentration gave 98%; 20 mM MOPS pH 8.0, 300 mM NaCl, 25 °C.
Assay [9] addresses T4, C-BgsA. Description: SPR direct binding, immobilised ligand.
Assay [10] deals with T8, C-BgsA (Sinorhizobium meliloti, UniProt Q92WG2, G635R).
T8 construct: gene SM_b20391
T8 sequence (Q92WG2 526-664 G635R): T4 sequence (Q92WG2 526-664) with G110R
Description: SPR direct binding, immobilised ligand.

Assay [11] addresses T9, C-BgsA (Sinorhizobium meliloti, UniProt Q92WG2, G635V).
T9 construct: gene SM_b20391
T9 sequence (Q92WG2 526-664 G635V): T4 sequence (Q92WG2 526-664) with G110V
Description: SPR direct binding, immobilised ligand.

Numbering of substitutions follows the chain as printed.

T5 sequence (Q92WG2 entry or part of it D608A): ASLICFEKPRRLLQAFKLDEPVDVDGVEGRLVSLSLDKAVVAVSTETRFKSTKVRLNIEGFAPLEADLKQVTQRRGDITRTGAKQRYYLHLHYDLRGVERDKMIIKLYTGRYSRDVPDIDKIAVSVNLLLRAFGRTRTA
T6 sequence (Q92WG2 entry or part of it H615A): as the sequence (Q92WG2 entry or part of it D608A) above, with A83D, H90A counted along it
T2 sequence (Q92WG2 entry or part of it R605A): as the sequence (Q92WG2 entry or part of it D608A) above, with R80A, A83D counted along it
T3 sequence (Q92WG2 entry or part of it R656A): as the sequence (Q92WG2 entry or part of it D608A) above, with A83D, R131A counted along it
T1 sequence (Q92WG2 entry or part of it R599A): as the sequence (Q92WG2 entry or part of it D608A) above, with R74A, A83D counted along it
T7 sequence (Q92WG2 entry or part of it Y633A): as the sequence (Q92WG2 entry or part of it D608A) above, with A83D, Y108A counted along it

By EC50 is commonly meant the concentration giving half of the maximal effect. The low end stands for an effect from little substance, the high end for a need for much substance. Turning to `Nc1nc2c(ncn2[C@@H]2O[C@@H]3CO[P@](=O)(O)O[C@H]4[C@@H](O)[C@H](n5cnc6c(=O)[nH]c(N)nc65)O[C@@H]4CO[P@](=O)(O)O[C@H]3[C@H]2O)c(=O)[nH]1` [c-di-GMP], the EC50 on C-BgsA [1] amounted to 372000 ± 114000 nM; at C-BgsA [2], 140 ± 10 nM; at C-BgsA [3], 400 ± 50 nM; on C-BgsA [4] it was 270 ± 10 nM; on C-BgsA [5], 270 ± 70 nM; at C-BgsA [6], 292000 ± 73000 nM. In addition, on C-BgsA [7], the response was half-maximal at 230 ± 10 nM (EC50).
As for `Nc1ncnc2c1ncn2[C@@H]1O[C@@H]2COP(=O)(O)O[C@H]3[C@@H](O)[C@H](n4cnc5c(N)ncnc54)O[C@@H]3COP(=O)(O)O[C@H]2[C@H]1O` [c-di-AMP], at C-BgsA [8], the “% reduction of C-BgsA binding at 500 μM” value is listed as 17%.
One may read the Kd as the free concentration of one partner at which half of the binding sites on the other are occupied at equilibrium, for simple one-to-one binding. On to `NCCCCCCNC(=O)O[C@@H]1[C@@H]2OP(=O)(O)OC[C@H]3O[C@@H](n4cnc5c(=O)[nH]c(N)nc54)[C@H](O)[C@@H]3OP(=O)(O)OC[C@H]2O[C@H]1n1cnc2c(=O)[nH]c(N)nc21` [2′-AHC-c-di-GMP], for which the equilibrium dissociation constant (Kd) is 230 nM on C-BgsA [9], 190 nM at C-BgsA [10] and 140 nM on C-BgsA [11].
